According to US6294650A, “Inhibition of mammalian telomerase by peptide nucleic acids” (The Board of Regents, University of Texas System, priority 1999, dated 2001):

How the values were obtained:
human telomerase [1] = assay: TRAP assay of telomerase activity in permeabilized HME50-5 cells; format: cell-based; details: 37° C., read-out: IC50 (nM) Perm. Cells 37° C.
Protocol: To examine the ability of PNAs to inhibit telomerase activity within permeabilized cells HME50-5 cells were treated with a buffered solution containing a relatively low concentration of detergent (20 mM Tris-HCl, pH 8.3, 1.5 mM MgCl2, 68 mM KCl, 0.5% Tween 20, 1 mM EGTA, 5.0% glycerol, and 0.1 mM AEBSF). The telomerase activity in these cells was not further purified, and permeabilized cells were incubated with PNA and PS oligomers prior to assay for telomerase activity.
A further control experiment was performed to ensure that the observed. inhibition was due to PNA entry into permeabilized cells The TRAP assay was utilized to compare the level of telomerase activity retained inside permeabilized cells to activity which leaks into solution. This control was necessary to ensure that the observed inhibition was due to PNA inhibition of telomerase within cells. Permeabilized cells were centrifuged and the cell pellet and the cell-free supernatant were separately examined for telomere activity using the TRAP assay. Greater than 80% of telomerase activity remained associated with the cell pellet after this mild treatment, confirming that telomerase is largely retained inside permeabilized cells.
Telomerase activity was determined using the telomere repeat amplification protocol (TRAP) assay essentially as described (Piatyszek et al. (1995) Methods in Cell Science 17: 1) with the modification that the cellular extract was preincubated at 25° C. for 30 minutes with the PNA at the concentrations indicated. Following preincubation 3 μl of the cellular extract plus PNA was added to a PCR tube containing 46 μl of reaction buffer (20 mM Tris-HCl, pH 8.3, 1.5 MM MgCl2, 68 MM KCl, 0.05% Tween-20, 1 mM EGTA), 50 μM dNTPs, 0.1 μg TS primer (5'-[…]-3' (SEQ ID NO:23)), 5 attg ITAS template (25), 0.5 μM T4 gene 32 protein, 2 Units Taq polymerase, 4 μCi^32 P-α dCTP) above a wax barrier separating 0.1 μg of the CX, reverse primer (5'-[…]-3' (SEQ ID NO:24)), and incubated for 30 minutes to allow telomerase to elongate the TS primer. The tubes were transferred to a PCR thermocycler set at 94° C. for 3 minutes to melt the wax barrier, cycled 30 times (30 seconds at 95° C., 30 seconds at 55° C. and 30 seconds at 72° C.) followed by a 3 minute extension at 72° C. The samples were frozen at -80° C. and the wax barrier removed. The solution containing the PCR products (40 μl) was added to 3.3 μl of loading buffer and 20 μl was loaded onto a 10% non-denaturing polyacrylamide gel and separated by electrophoresis at 180 volts for 45 minutes followed by 280 volts for 1 hour and 45 minutes. Gels were fixed for 30 minutes (1:1 ethanol: water, 0.5 M NaCl, 40 mM NaOAc, pH 4.2) then exposed to a phosphorimager screen for quantitation. Phosphorimager analysis was performed utilizing a Molecular Dynamics model 425F phosphorimager. Data was processed using ImageQuant software version 3.3.
(§1) Varied concentrations of PNA were added to cell extracts containing the TS primer. Telomerase products were visualized by gel electrophoresis and the extent of inhibition was quantified by phosphorimager analysis by evaluating each lane of the gels separately. The lanes were further separated into two areas for evaluation; one for the internal amplification standard (ITAS) and the other for all telomerase products. A ratio of telomerase products to ITAS was determined and compared to a positive control in which no PNA had been added. This ratio was taken to indicate telomerase activity with the ratio of the positive control being assigned 100% activity. The extent of inhibition as a function of the concentration of the added PNA was plotted and these graphs were utilized to derive the IC50.
The potential for such interactions to interfere with the location of hTR by PNAs was evaluated by examining elongation under conditions more similar to those in vivo. PNAs were applied to HME50-5 cells that had been mildly permeabilized. […]

human telomerase [2] = assay: TRAP assay of telomerase activity in HME50-5 cell extracts preincubated with PNA or PS oligomer; format: biochemical
Protocol: Cells were derived from a human immortal primary breast epithelial cell line (HME50-5) that expresses telomerase at high levels. Cell extracts were obtained by resuspending a 100,000 cell pellet into 200 μl of lysis buffer (0.5% 3-[3-cholamidopropyl-dimethylammonio]-1-propane-sulfonate (CHAPS), 10 mM Tris-HCl, pH 7.5, 1 mM ethylenebis(oxyethylene-nitrilo)tetraacetic acid (EGTA), 5 mM β-mercaptoethanol, 0.1 mM 4-(2-aminoethyl)benzenesulfonyl fluoride (AEBSF), 10% glycerol). The suspension was mixed by pipetting at least three times and kept on ice for 30 minutes. The lysate was centrifuged at 16,000×g for 20 minutes at 4° C., and 160 μl of the supernatant was collected. The cells were then diluted 10-fold to obtain a 50 cell equivalent/μl stock suspension, aliquoted, frozen in liquid nitrogen, and stored at -80° C. These aliquots were utilized throughout our experiments to ensure consistency.
The tubes were transferred to a PCR thermocycler set at 94° C. for 3 minutes to melt the wax barrier, cycled 30 times (30 seconds at 95° C., 30 seconds at 55° C. and 30 seconds at 72° C.) followed by a 3 minute extension at 72° C. The samples were frozen at -80° C. and the wax barrier removed. […] Gels were fixed for 30 minutes (1:1 ethanol: water, 0.5 M NaCl, 40 mM NaOAc, pH 4.2) then exposed to a phosphorimager screen for quantitation. […] Data was processed using ImageQuant software version 3.3.
as §1, with “A ratio of telomerase products to ITAS was determined and compared to a positive control in which no PNA had been added.” left out
Telomerase activity was measured using the telomeric repeat amplification protocol (TRAP). Rather than measure the change in chromosome length over time, a process that requires weeks to produce definitive results and measures telomerase activity only indirectly, the TRAP assay measures the elongation of a short oligonucleotide primer (TS primer) known to act as an efficient substrate of telomerase. Cell extracts from a human immortal breast epithelial cell line, HME50-5, expressing telomerase were preincubated with PNAs to allow recognition of complementary sequences by Watson-Crick base-pairing. The TS primer was then added to initiate chain elongation by telomerase. Following elongation of the TS primer, the mixture was transferred to a thermocycler and polymerase chain reaction (PCR) was performed to amplify the products. Two potential template DNAs were present, and amplification products were primed from either an internal amplification standard (ITAS) or from the product of telomerase elongation of the TS primer. These amplification products were separated by gel electrophoresis and quantitated separately. A ratio of the amount of amplified products of telomerase activity to that derived from amplification of the ITAS standard was determined and compared to a positive control to which no PNA was added. This comparison allowed calculation of the inhibition of telomerase activity due to a given concentration of PNA.

[3] = HME50-5 cell extract, 25° C., 30 min preincubation, read-out: IC50 (nM) Cell Extract 25° C.
[4] = HME50-5 cell extract, 37° C., read-out: IC50 (nM) Cell Extract 37° C.

Substance	IC50 (human telomerase [1]) [nM]	IC50 (human telomerase [2]; [3]) [nM]	IC50 (human telomerase [2]; [4]) [nM]	further results
PNA (III): complementary PNA, sequence TTAGGGTTAG (all peptide nucleic acid (PNA))	500	200	400	IC50 (human telomerase [2]; cell extract, 30 min preincubation, read-out: IC50 for inhibition of telomerase): 200 nM
PNA (IV): complementary PNA, sequence GTTAGGGTTAG (all peptide nucleic acid (PNA))	300			
PNA (IX): complementary PNA, sequence TAGGGTTAGAC (all peptide nucleic acid (PNA))		10		IC50 (human telomerase [2]; HME50-5 cell extract, 25° C., 30 min preincubation, listed as PNA IX, read-out: IC50 (nM) Cell Extract 25° C.): ~10 nM
PNA (V): complementary PNA, sequence AGTTAGGGTTAG (all peptide nucleic acid (PNA))	370	10	75	
PNA (VI): complementary PNA, sequence CAGTTAGGGTTAG (all peptide nucleic acid (PNA))	75	10	50	
PNA (VII): complementary PNA, sequence CTCAGTTAGGGTTAG (all peptide nucleic acid (PNA))			70	
PNA (VIII): complementary PNA, sequence CCCTTCTCAGTTAGGGTTAG (all peptide nucleic acid (PNA))	400	200	300	
PNA (X): complementary PNA, sequence GTTAGGGTTAGAC (antisense; all peptide nucleic acid (PNA))		10		IC50 (human telomerase [2]; HME50-5 cell extract, 25° C., 30 min preincubation, listed as PNA X, read-out: IC50 (nM) Cell Extract 25° C.): ~10 nM
PNA (XI): complementary PNA, sequence GGGTTAGACAA (all peptide nucleic acid (PNA))	70	10	50	IC50 (human telomerase [2]; HME50-5 cell extract, 25° C., 30 min preincubation, listed as PNA XI, read-out: IC50 (nM) Cell Extract 25° C.): ~10 nM
PNA (XII): complementary PNA, sequence TAGGGTTAGACAA (all peptide nucleic acid (PNA))		0.9		preincubation time to reach maximal inhibition (human telomerase [2]; 300 pM PNA): ninety; preincubation time to reach maximal inhibition (human telomerase [2]; 200 nM PNA): five; reversibility of inhibition once maximal inhibition attained (human telomerase [2]; lengthy incubation with primer and nucleotides): effectively irreversible
PNA (XIII): complementary PNA, sequence GTTAGGGTTAGACAA (all peptide nucleic acid (PNA))			50	
PNA (XIV): non-complementary PNA, sequence AGGATCTTCACCTAGATCCT (all peptide nucleic acid (PNA)) [reference compound]		> 33000	> 33000	inhibition of human telomerase activity (in words) (human telomerase [2]; cell extract): did not detectably inhibit
PNA (XV): non-complementary PNA, sequence TGTAAGGAACTAG (all peptide nucleic acid (PNA)) [reference compound]		> 33000	> 33000	inhibition of human telomerase activity (in words) (human telomerase [2]; cell extract): did not detectably inhibit
PS (I): complementary phosphorothioate oligonucleotide 5'-GTTAGGGTTAG-3' (all phosphorothioate, sugars by position not given here) [reference compound]		75	250	
PS (II): complementary phosphorothioate oligonucleotide CTCAGTTAGGGTTAG (all phosphorothioate, sugars by position and methylation of C not given here) [reference compound]		100	700	
PS (III): complementary phosphorothioate oligonucleotide TAGGGTTAGACAA (all phosphorothioate, sugars by position and methylation of C not given here) [reference compound]		50	200	
PS (IV): non-complementary phosphorothioate oligonucleotide AGGATCTTCACCTAGATCCT (all phosphorothioate, sugars by position and methylation of C not given here) [reference compound]		100	400	
PS (V): non-complementary phosphorothioate oligonucleotide TGTAAGGAACTAG (all phosphorothioate, sugars by position and methylation of C not given here) [reference compound]		100	450	
